The record followed here is ChEMBL document CHEMBL3871305, “Imidazopyridyl compounds as aldosterone synthase inhibitors” (Bioorg Med Chem Lett, 2017).

A short description of data set [1]: in vitro. The settings on record: human, liver microsomes. In general terms: Microsomes from liver hold many membrane-bound enzymes, among them those of drug oxidation.
Data set [2] can be described thus: in vitro. The settings on record: rat, liver microsomes.
Data set [3] can be described thus: in vitro. The settings on record: rhesus monkey, liver microsomes.
The nature of data set [4]: Plasma clearance in Wistar Han rat at 1 mg/kg, iv or 2 mg/kg, po. The data set is classed as ADME, organism-based.
A short description of data set [5]: Volume of distribution at steady state in Wistar Han rat at 1 mg/kg, iv or 2 mg/kg, po. The data set is classed as ADME, organism-based. Particulars: in vivo, read-out: Vdss.
Data set [6] is described as follows: MRT in Wistar Han rat at 1 mg/kg, iv or 2 mg/kg, po. Type of data set: ADME, organism-based. Particulars: in vivo.
Data set [7] in a line: Half life in Wistar Han rat at 1 mg/kg, iv or 2 mg/kg, po. Type of data set: ADME, organism-based. Particulars: in vivo.
Data set [8] in a line: Dose normalized AUC in Wistar Han rat at 2 mg/kg, po. Type of data set: ADME, organism-based. The settings on record: in vivo.
Data set [9] in a line: Cmax in Wistar Han rat at 1 mg/kg, iv or 2 mg/kg, po. The data set is classed as ADME, organism-based. The settings on record: in vivo.
A short description of data set [10]: Oral bioavailability in Wistar Han rat at 2 mg/kg. Type of data set: ADME, organism-based. Particulars: in vivo.

On to `Fc1cncc(-c2nc3ccc(F)cn3c2C2CC2)c1`, for which the share remaining (commonly the share of the starting amount still present when the sample was taken) at 0.5 h, 1 µM in data set [1] amounted to 93%; in [2] it was 70%; in [3] it was 29%.
Turning to `CCc1c(F)cncc1-c1nc2ccc(F)cn2c1C1CC1`, the fraction remaining at 0.5 h, 1 µM in [1] was determined as 37%; in data set [2] it was 2%; in [3], 0%.
`C[C@](O)(c1cncc(-c2nc3ccc(F)cn3c2C2CC2)c1)C(F)(F)F`: the clearance in [4] was found to be 23 mL/min/kg. Besides, the Vd in data set [5] is 0.82 L/kg. In data set [6], the MRT (usually the average time that molecules of a dose stay in the body) turned out to be 34.8 min. For the same compound, the half-life (commonly the time needed for the level to fall by half in the phase considered) in [7] is 36.6 min. Besides, the AUC/dose in data set [8] is 0.92 µM·kg·h/mg. Further, the peak concentration (Cmax) – broadly, the maximum level reached in the sampled fluid or tissue – in data set [9] is 700 nM. Moreover, the bioavailability – broadly, dose-corrected exposure relative to a reference, in per cent – in data set [10] stood at 47%. Moreover, the amount remaining at 0.5 h, 1 µM in data set [1] is 88%; in data set [2], 38%; in data set [3], 31%.
On to `C[C@@](O)(c1cncc(-c2nc3ccc(F)cn3c2C2CC2)c1)C(F)(F)F`, for which the fraction remaining at 0.5 h, 1 µM in data set [1] was 96%; in data set [2], 33%; in [3], 31%.
For the compound `Fc1cncc(-c2nc3cc(F)c(Cl)cn3c2C2CC2)c1`, the share remaining at 0.5 h, 1 µM in data set [1] was found to be 93%; in data set [2], 80%; in data set [3] it was 87%.
